Source: ChEMBL document CHEMBL4765464, “Discovery of BMS-986144, a Third-Generation, Pan-Genotype NS3/4A Protease Inhibitor for the Treatment of Hepatitis C Virus Infection” (J Med Chem, 2020)
pEC50, pIC50: −log10 of the molar value.

Assays:
[1] = Inhibition of recombinant full length NS3/4A protease in Hepatitis C virus subtype 3a infected in human HuH7 cells using Ac-Asp-Glu-Asp (EDANS)-Glu-Glu-Abu-(COO) Ala-Ser-Lys (DABCYL)-NH2 as substrate by FRET assay; conditions: Huh-7
[2] = Inhibition of recombinant full length NS3/4A protease in Hepatitis C virus subtype 1a replicon infected in human HuH7 cells preincubated for 3 days followed by substrate addition and measured after 2 hrs by renilla luciferase reporter gene assay; assay type: cell-based; conditions: Huh-7
[3] = Inhibition of recombinant full length NS3/4A protease in Hepatitis C virus subtype 1b replicon infected in human HuH7 cells preincubated for 3 days followed by substrate addition and measured after 2 hrs by renilla luciferase reporter gene assay; assay type: cell-based; conditions: Huh-7
[4] = Inhibition of recombinant full length NS3/4A protease in Hepatitis C virus subtype 2a replicon infected in human HuH7 cells preincubated for 3 days followed by substrate addition and measured after 2 hrs by renilla luciferase reporter gene assay; assay type: cell-based; conditions: Huh-7
[5] = Inhibition of recombinant full length NS3/4A protease in Hepatitis C virus subtype 3a replicon infected in human HuH7 cells preincubated for 3 days followed by substrate addition and measured after 2 hrs by renilla luciferase reporter gene assay; assay type: cell-based; conditions: Huh-7
[6] = Inhibition of recombinant full length NS3/4A R155K mutant protease in Hepatitis C virus subtype 1a replicon infected in human HuH7 cells preincubated for 3 days followed by substrate addition and measured after 2 hrs by renilla luciferase reporter gene assay; assay type: cell-based; conditions: Huh-7
[7] = Inhibition of recombinant full length NS3/4A D168V mutant protease in Hepatitis C virus subtype 1b replicon infected in human HuH7 cells preincubated for 3 days followed by substrate addition and measured after 2 hrs by renilla luciferase reporter gene assay; assay type: cell-based; conditions: Huh-7
[8] = Metabolic stability in human liver microsomes assessed as half-life incubated for 5 to 45 mins in presence of NADPH by LC-MS analysis; assay type: ADME, Microsome; conditions: time 5-45 min
[9] = Drug concentration in rat plasma at 5 mg/kg, po measured upto 24 hrs; assay type: ADME, organism-based; conditions: read-out: Ct
[10] = Drug concentration in rat liver at 5 mg/kg, po measured upto 24 hrs; assay type: ADME, organism-based; conditions: read-out: Ct
[11] = Oral bioavailability in rat at 5 mg/kg; assay type: ADME, organism-based; conditions: in vivo
[12] = Half-life in dog at 3 mg/kg, po or 1 mg/kg, iv; assay type: ADME, organism-based, Canis lupus familiaris; conditions: in vivo
[13] = Half-life in rat at 5 mg/kg, po or 1 mg/kg, iv; assay type: ADME, organism-based; conditions: in vivo
[14] = Clearance in rat at 5 mg/kg, po or 1 mg/kg, iv; assay type: ADME, organism-based; conditions: in vivo
[15] = AUC in rat at 5 mg/kg, po or 1 mg/kg, iv; assay type: ADME, organism-based; design: dose 5 mg/kg; conditions: in vivo
[16] = Clearance in dog at 3 mg/kg, po or 1 mg/kg, iv; assay type: ADME, organism-based, Canis lupus familiaris; conditions: in vivo
[17] = Oral bioavailability in dog at 3 mg/kg; assay type: ADME, organism-based, Canis lupus familiaris; conditions: in vivo
[18] = AUC in dog at 3 mg/kg, po or 1 mg/kg, iv; assay type: ADME, organism-based, Canis lupus familiaris; design: dose 3 mg/kg; conditions: in vivo
[19] = Drug concentration in dog plasma at 3 mg/kg, po measured upto 24 hrs; assay type: ADME, organism-based, Canis lupus familiaris; conditions: read-out: Ct
[20] = Half-life in cynomolgus monkey at 3 mg/kg, po or 1 mg/kg, iv; assay type: ADME, organism-based, Macaca fascicularis; conditions: in vivo
[21] = Clearance in cynomolgus monkey at 3 mg/kg, po or 1 mg/kg, iv; assay type: ADME, organism-based, Macaca fascicularis; conditions: in vivo
[22] = Oral bioavailability in cynomolgus monkey at 3 mg/kg; assay type: ADME, organism-based, Macaca fascicularis; conditions: in vivo
[23] = AUC in cynomolgus monkey at 3 mg/kg, po or 1 mg/kg, iv; assay type: ADME, organism-based, Macaca fascicularis; design: dose 3 mg/kg; conditions: in vivo
Cytochrome P450 3A4 [24] = target: T1, Cytochrome P450 3A4 (Homo sapiens, UniProt P08684); assay: Inhibition of human CYP3A4 in human pooled liver microsomes at 0.002 to 40 uM in presence of midazolam as substrate preincubated in presence of NADPH followed by addition of substrate by LC-MS/MS analysis; assay type: ADME; conditions: TDE = time-dependent effect, dose 0.002-40 µM, time <=30 min
T1 sequence (P08684 whole entry): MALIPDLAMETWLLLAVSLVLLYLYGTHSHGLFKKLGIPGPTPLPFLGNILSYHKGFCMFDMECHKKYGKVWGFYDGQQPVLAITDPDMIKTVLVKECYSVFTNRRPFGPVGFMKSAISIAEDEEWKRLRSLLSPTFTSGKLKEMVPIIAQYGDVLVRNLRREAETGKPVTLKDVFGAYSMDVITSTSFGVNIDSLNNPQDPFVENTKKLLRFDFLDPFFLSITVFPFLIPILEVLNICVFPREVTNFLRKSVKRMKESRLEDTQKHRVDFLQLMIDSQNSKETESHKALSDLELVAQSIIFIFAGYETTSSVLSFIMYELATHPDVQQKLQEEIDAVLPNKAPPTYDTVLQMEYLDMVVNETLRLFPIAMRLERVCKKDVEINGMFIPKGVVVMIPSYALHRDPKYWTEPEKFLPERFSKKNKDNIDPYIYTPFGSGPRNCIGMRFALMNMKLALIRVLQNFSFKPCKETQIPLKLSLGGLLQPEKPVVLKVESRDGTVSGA

Cytochrome P450 3A4 [25] = target: T1, Cytochrome P450 3A4; assay: Inhibition of human CYP3A4 in human pooled liver microsomes at 0.002 to 40 uM in presence of testosterone as substrate preincubated in presence of NADPH followed by addition of substrate by LC-MS/MS analysis; assay type: ADME; conditions: TDE = time-dependent effect, dose 0.002-40 µM, time <=30 min
Cytochrome P450 3A4 [26] = target: T1, Cytochrome P450 3A4; assay: Inhibition of human CYP3A4 in human pooled liver microsomes in presence of testosterone as substrate preincubated for 0 mins in presence of NADPH followed by addition of substrate by LC-MS/MS analysis; assay type: ADME
Cytochrome P450 3A4 [27] = target: T1, Cytochrome P450 3A4; assay: Inhibition of human CYP3A4 in human pooled liver microsomes in presence of midazolam as substrate preincubated for 0 mins in presence of NADPH followed by addition of substrate by LC-MS/MS analysis; assay type: ADME
Cytochrome P450 3A4 [28] = target: T1, Cytochrome P450 3A4; assay: Inhibition of human CYP3A4 in human pooled liver microsomes in presence of testosterone as substrate preincubated for 30 mins in presence of NADPH followed by addition of substrate by LC-MS/MS analysis; assay type: ADME
Cytochrome P450 3A4 [29] = target: T1, Cytochrome P450 3A4; assay: Inhibition of human CYP3A4 in human pooled liver microsomes in presence of midazolam as substrate preincubated for 30 mins in presence of NADPH followed by addition of substrate by LC-MS/MS analysis; assay type: ADME
[30] = Toxicity in rat assessed as clinical effect measured upto 4 days; conditions: in vivo, 96 h, time <=4 day
[31] = Toxicity in rat assessed as histopathological changes measured upto 4 days; conditions: in vivo, 96 h, time <=4 day
[32] = Toxicity in rat assessed as effect on cardiovascular system by telemetry; conditions: in vivo
[33] = Toxicity in rabbit assessed as effect on cardiovascular system by telemetry; design: species or system Oryctolagus cuniculus; conditions: in vivo
Cytochrome P450 3A4 [34] = target: T1, Cytochrome P450 3A4; assay: […] of CYP3A4 in human liver microsome in presence of midazolam as substrate preincubated for upto 30 mins in presence of NADPH followed by addition of substrate by LC-MS/MS analysis; assay type: ADME; conditions: microsomes
CHO = assay: Genotoxicity in Chinese Hamster CHO cells assessed as non clastogenicity by micronucleus assay; assay type: toxicity, cell-based, Cricetulus griseus
[35] = Cytotoxicity against human Huh-7 cells assessed as reduction in cell viability; assay type: cell-based
[36] = Cytotoxicity against human MT2 cells assessed as reduction in cell viability; assay type: cell-based
[37] = Genotoxicity in Salmonella typhimurium by AMES test; assay type: toxicity; conditions: salmonella enterica subsp. enterica serovar typhimurium

Compound: [2H]C([2H])([2H])Oc1cc2ccnc(O[C@@H]3C[C@H]4C(=O)N[C@]5(C(=O)NS(=O)(=O)C6(C)CC6)C[C@H]5/C=C\CC[C@@H](C)C[C@@H](CC)[C@H](NC(=O)OC(C)(C)C(F)(F)F)C(=O)N4C3)c2cc1F
- pIC50 [1]: 8.32
- pEC50 [2]: 8.64
- pEC50 [3]: 9.15
- pEC50 [4]: 9.00
- pEC50 [5]: 7.92
- pEC50 [6]: 8.10
- pEC50 [7]: 8.24
- half-life [8]: 0.55 h
- concentration at 24 h [9]: 3.85 µM
- concentration at 24 h [10]: 4.16 µM
- bioavailability [11]: 57%
- half-life [12]: 8.7 h
- half-life [13]: 13.4 h
- clearance [14]: 0.18 mL/min/kg
- AUC [15]: 310 µM·h
- clearance [16]: 1.1 mL/min/kg
- bioavailability [17]: 71%
- AUC [18]: 39.8 µM·h
- concentration at 24 h [19]: 0.163 µM
- half-life [20]: 1.2 h
- clearance [21]: 12.1 mL/min/kg
- bioavailability [22]: 23.9%
- AUC [23]: 0.19 µM·h
- inhibition (INH) (Cytochrome P450 3A4 [24]): Tde
- inhibition (INH) (Cytochrome P450 3A4 [25]): Tde
- pIC50 (Cytochrome P450 3A4 [26]): < 4.40
- pIC50 (Cytochrome P450 3A4 [27]): < 4.40
- pIC50 (Cytochrome P450 3A4 [28]): < 4.48
- pIC50 (Cytochrome P450 3A4 [29]): 4.79
- Activity [30]: Non-Toxic
- Activity [31]: Non-Toxic
- Activity [32]: Non-Toxic
- Activity [33]: Non-Toxic
- Activity (Cytochrome P450 3A4 [34]): Not Active
- Activity (CHO): Non-Toxic
- CC50 [35]: 25000 nM
- CC50 [36]: 34000 nM
- Activity [37]: Non-Toxic
